Paper PMC4155405 (Nature communications, 2014)

What was measured:
MDCK cells = conditions: cited from earlier work
Jurkat cells = conditions: cited from earlier work
Wuhan95 virus = type: cell-based

Compound | cytotoxicity in MDCK cells (MDCK cells) | ATP relative to un-treated control cells (Jurkat cells) | GTP relative to un-treated control cells (Jurkat cells) | reversal of ribavirin inhibition of Wuhan95 replication by guanosine (Wuhan95 virus)
NC(=O)c1nc(F)c[nH]c1=O [favipiravir] | No cytotoxicity |  |  | 
Nc1nc2c(ncn2[C@@H]2O[C@H](CO)[C@@H](O)[C@H]2O)c(=O)[nH]1 [guanosine] |  | 40% | 600% | can restore Wuhan95 replication
